Laboratory results published in the NIST ThermoML archive (doi:10.1021/je050540h).
Where “and” joins values, the source holds several entries; their conditions need not be identical. Equal values may be shown once.

How the values were obtained:
[1] = Liquid
[2] = xn = mol fraction of the nth substance listed; conditions: 101 kPa, Liquid

CCC(C)O (stereo not drawn) [butan-2-ol]
[1], 101 kPa
Conditions	mass density [kg/m3]	speed of sound [m/s]	viscosity [mPa·s]
293.15 K	806.84	1230	3.623
298.15 K	802.72	1212	2.995
303.15 K	798.51	1194	2.493

C1CCCCC1 [cyclohexane]
[1]
Conditions	mass density, 293.15 K [kg/m3]	mass density, 298.15 K [kg/m3]	mass density, 303.15 K [kg/m3]	speed of sound, 293.15 K [m/s]	speed of sound, 298.15 K [m/s]	speed of sound, 303.15 K [m/s]	viscosity, 293.15 K [mPa·s]	viscosity, 298.15 K [mPa·s]	viscosity, 303.15 K [mPa·s]
7 kPa	–	–	–	1279	1254	1230	–	–	–
101 kPa	778.62	773.92	769.19	1279	1254	1230	0.968	0.887	0.816

C1CCCC1 [cyclopentane]
[1], 101 kPa
Conditions	mass density [kg/m3]	speed of sound [m/s]	viscosity
293.15 K	744.52	1232	0.438 mPa·s and 0.439 mPa·s
298.15 K	739.55	1206	0.416 mPa·s
303.15 K	734.54	1180	0.394 mPa·s

C1CCCC1 [cyclopentane] + CCCC(C)O
[2]
Conditions	mass density, 293.15 K [kg/m3]	mass density, 298.15 K [kg/m3]	mass density, 303.15 K [kg/m3]	speed of sound, 293.15 K [m/s]	speed of sound, 298.15 K [m/s]	speed of sound, 303.15 K [m/s]	viscosity, 293.15 K [mPa·s]	viscosity, 298.15 K [mPa·s]	viscosity, 303.15 K [mPa·s]
x1 = 0.045	806.38	802.28	798.1	1246	1227	1208	3.573	2.948	2.459
x1 = 0.103	802.8	798.62	794.35	1239	1220	1200	3.005	2.509	2.118
x1 = 0.1878	797.38	793.07	788.68	1229	1209	1189	2.322	1.969	1.687
x1 = 0.2924	790.57	786.12	781.6	1218	1198	1177	1.723	1.491	1.304
x1 = 0.3906	783.89	779.33	774.71	1209	1188	1167	1.296	1.148	1.027
x1 = 0.5117	775.68	771.03	766.32	1201	1179	1157	0.957	0.87	0.794
x1 = 0.6242	768.16	763.43	758.63	1197	1175	1152	0.747	0.694	0.645
x1 = 0.721	761.81	756.98	752.09	1198	1175	1152	0.629	0.587	0.548
x1 = 0.8091	756.27	751.36	746.38	1202	1178	1154	0.552	0.516	0.487
x1 = 0.9094	749.82	744.82	739.76	1211	1186	1161	0.482	0.453	0.428
x1 = 0.9552	746.94	741.92	736.85	1218	1193	1167	0.455	0.43	0.407
x1 = 1	744.52	739.55	734.54	1232	1206	1180	0.439	0.416	0.394
